Data reported in patent publication US9676715B2, “Bis-indolic derivatives, a process for preparing the same and their uses as a drug” (UNIVERSITE JOSEPH FOURIER, priority 2011, dated 2017).
Values after ≈ are worked out from the molar mass of the structure shown.

Experiments:
[1] = test system: S. aureus ATCC 106414 (VISA); assay: MIC, microdilution method (9.1); assay type: cell-based, Staphylococcus aureus; conditions: Staphylococcus aureus, read after 18 h, read-out: MIC
Protocol: (§1) The microdilution method recommended by the Clinical and Laboratory Standard Institute [M07-A8, Vol. 29, No. 2] was used. The activity of indolic compounds was tested against 29 bacterial strains belonging to 17 different species and 12 different genera (Staphylococcus, Streptococcus, Enterococcus, Listeria, Bacillus, Haemophilus, Escherichia, Klebsiella, Enterobacter, Serratia, Pseudomonas, and Acinetobacter). Bacterial inocula were prepared in Mueller Hinton broth (MH2, bioMérieux, Marcy L'Etoile, France), supplemented with 10% sheep blood for fastidious species (i.e., Streptococcus pneumoniae and Haemophilus influenzae). They were dispensed in 96 well microtiter plates (5×10^5 CFU/ml of final inoculum). Indolic compounds were added to the wells as to obtain two-fold serial concentrations (0.50-128 mg/L of final concentrations). Plates were incubated at 37° C. in ambient air, or at 37° C. in 5% CO2 enriched atmosphere for fastidious species. […] Drug-free cultures served as growth controls. Cultures receiving gentamicin, ciprofloxacin or cefotaxime served as positive controls.

[2] = test system: S. aureus ATCC 25923; assay: MIC, microdilution method (9.1); assay type: cell-based, Staphylococcus aureus; conditions: Staphylococcus aureus, ATCC25923, read after 18 h, read-out: MIC
Protocol: as §1

[3] = test system: S. aureus ATCC 29213; assay: MIC, microdilution method (9.1); assay type: cell-based, Staphylococcus aureus; conditions: Staphylococcus aureus, ATCC29213, read after 18 h, read-out: MIC
Protocol: as §1

[4] = test system: S. aureus ATCC 33592 (MRSA); assay: MIC, microdilution method (9.1); assay type: cell-based, Staphylococcus aureus; conditions: Staphylococcus aureus, read after 18 h, read-out: MIC
Protocol: as §1

[5] = test system: S. aureus ATCC 6538; assay: MIC, microdilution method (9.1); assay type: cell-based, Staphylococcus aureus; conditions: Staphylococcus aureus, ATCC6538, read after 18 h, read-out: MIC
Protocol: as §1

[6] = test system: S. aureus ATCC 9144; assay: MIC, microdilution method (9.1); assay type: cell-based, Staphylococcus aureus; conditions: Staphylococcus aureus, ATCC9144, read after 18 h, read-out: MIC
Protocol: as §1

[7] = test system: S. aureus CIP 103428; assay: MIC, microdilution method (9.1); assay type: cell-based, Staphylococcus aureus; conditions: Staphylococcus aureus, CIP103428, read after 18 h, read-out: MIC
Protocol: as §1

[8] = test system: S. aureus CIP 65.25 (MRSA); assay: MIC, microdilution method (9.1); assay type: cell-based, Staphylococcus aureus; conditions: Staphylococcus aureus, read after 18 h, read-out: MIC
Protocol: as §1

[9] = test system: S. aureus CIP 65.6; assay: MIC, microdilution method (9.1); assay type: cell-based, Staphylococcus aureus; conditions: Staphylococcus aureus, CIP65, read after 18 h, read-out: MIC
Protocol: as §1

[10] = test system: S. epidermidis ATCC 12228; assay: MIC, microdilution method (9.1); assay type: cell-based, Staphylococcus epidermidis; conditions: Staphylococcus epidermidis, ATCC12228, read after 18 h, read-out: MIC
Protocol: as §1

[11] = test system: S. epidermidis CIP 103627; assay: MIC, microdilution method (9.1); assay type: cell-based, Staphylococcus epidermidis; conditions: Staphylococcus epidermidis, CIP103627, read after 18 h, read-out: MIC
Protocol: as §1

[12] = test system: S. epidermidis CIP 81.55; assay: MIC, microdilution method (9.1); assay type: cell-based, Staphylococcus epidermidis; conditions: Staphylococcus epidermidis, CIP81, read after 18 h, read-out: MIC
Protocol: as §1

[13] = test system: S. pneumoniae ATCC 6303; assay: MIC, microdilution method (9.1); assay type: cell-based, Streptococcus pneumoniae; conditions: Streptococcus pneumoniae, ATCC6303, 10% sheep blood, 5% CO2, 18 h, read-out: MIC
Protocol: as §1

[14] = test system: S. agalactiae (group B) ATCC 12400; assay: MIC, microdilution method (9.1); assay type: cell-based, Streptococcus agalactiae; conditions: Streptococcus agalactiae, ATCC12400, 18 h, read-out: MIC
Protocol: as §1

[15] = test system: S. pyogenes (group A) CIP 104226; assay: MIC, microdilution method (9.1); assay type: cell-based, Streptococcus pyogenes; conditions: Streptococcus pyogenes, CIP104226, 18 h, read-out: MIC
Protocol: as §1

[16] = test system: S. mitis CIP 103335; assay: MIC, microdilution method (9.1); assay type: cell-based, Streptococcus mitis; conditions: Streptococcus mitis, CIP103335, 18 h, read-out: MIC
Protocol: as §1

[17] = test system: E. faecium CIP 54.32; assay: MIC, microdilution method (9.1); assay type: cell-based, Enterococcus faecium; conditions: Enterococcus faecium, CIP54, 18 h, read-out: MIC
Protocol: as §1

[18] = test system: E. faecalis ATCC 29212; assay: MIC, microdilution method (9.1); assay type: cell-based, Enterococcus faecalis; conditions: Enterococcus faecalis, ATCC29212, 18 h, read-out: MIC
Protocol: as §1

[19] = test system: Acinetobacter baumanii ATCC 19606; assay: MIC, microdilution method (9.1); assay type: cell-based; conditions: Acinetobacter baumannii, ATCC19606, 18 h, read-out: MIC
Protocol: as §1

[20] = test system: Bacillus subtilis CIP 5262; assay: MIC, microdilution method (9.1); assay type: cell-based; conditions: CIP5262, 18 h, read-out: MIC
Protocol: as §1

[21] = test system: Enterobacter cloacae ATCC13047; assay: MIC, microdilution method (9.1); assay type: cell-based; conditions: 18 h
Protocol: as §1

[22] = test system: Escherichia coli ATCC 25922; assay: MIC, microdilution method (9.1); assay type: cell-based; conditions: ATCC25922, 18 h
Protocol: as §1

[23] = test system: Haemophilus influenzae ATCC 49766; assay: MIC, microdilution method (9.1); assay type: cell-based; conditions: ATCC49766; Haemophilus influenzae ATCC 49766; 10% sheep blood, 5% CO2; 18 h; read-out: MIC
Protocol: as §1

[24] = test system: Klebsiella pneumoniae API ATCC 35657; assay: MIC, microdilution method (9.1); assay type: cell-based; conditions: ATCC35657, 18 h, read-out: MIC
Protocol: as §1

[25] = test system: Listeria innocua CIP 80.11; assay: MIC, microdilution method (9.1); assay type: cell-based; conditions: CIP80, 18 h, read-out: MIC
Protocol: as §1

[26] = test system: Pseudomonas aeruginosa CIP 5933; assay: MIC, microdilution method (9.1); assay type: cell-based; conditions: CIP5933, 18 h, read-out: MIC
Protocol: as §1

[27] = test system: S. pneumoniae ATCC 49619; assay: MIC, microdilution method (9.1); assay type: cell-based; conditions: Streptococcus pneumoniae, ATCC49619, 10% sheep blood, 5% CO2, 18 h
Protocol: as §1

[28] = test system: Serratia marcescens CIP 103551; assay: MIC, microdilution method (9.1); assay type: cell-based; conditions: CIP103551, 18 h
Protocol: as §1

[29] = test system: S. aureus SA-1199B; assay: MIC, microdilution method (9.1); assay type: cell-based, Staphylococcus aureus; conditions: Staphylococcus aureus, SA1199B, 18 h
Protocol: as §1

[30] = test system: HCT116 (human colon tumor); assay: In vitro cytotoxicity; assay type: cell-based; conditions: read-out: % of cellular growth inhibition
Protocol: (§2) In vitro cytotoxicity was assayed on three cell lines—KB (human mouth carcinoma), MCR5 (human lung fibroblast) and HCT116 (human colon tumor). Results are presented in table IV as % of cellular growth inhibition in presence of 10^−5 M and 10^−6 M of the tested bis-indolic derivatives.

[31] = test system: KB (human mouth carcinoma); assay: In vitro cytotoxicity; assay type: cell-based; conditions: read-out: % of cellular growth inhibition
Protocol: as §2

[32] = test system: MRC5 (human lung fibroblast); assay: In vitro cytotoxicity; assay type: cell-based; conditions: read-out: % of cellular growth inhibition
Protocol: as §2

[33] = test system: HCT116 (human colon tumor); assay: In vitro cytotoxicity; assay type: cell-based; conditions: HCT-116, HCT116, from 100 μM to 0.005 μM in DMSO, duplicate

Compound | MIC [1] [µg/mL] | MIC [2] [µg/mL] | MIC [3] [µg/mL] | MIC [4] [µg/mL] | MIC [5] [µg/mL] | MIC [6] [µg/mL] | MIC [7] [µg/mL] | MIC [8] [µg/mL] | MIC [9] [µg/mL] | MIC [10] [µg/mL] | MIC [11] [µg/mL] | MIC [12] [µg/mL] | also measured
O=C(NC(C(=O)NCCO)c1c[nH]c2ccc(Br)cc12)c1c[nH]c2ccc(Br)cc12 (stereo not shown) [Compound 14, 5-Bromo-N-(1-(5-bromo-1H-indol-3-yl)-2-((2-hydroxyethyl)amino)-2-oxoethyl)-1H-indole-3-carboxamide] | 32 (≈ 59.9 µM) | 32 (≈ 59.9 µM) | 32 (≈ 59.9 µM) | 32 (≈ 59.9 µM) | 32 (≈ 59.9 µM) | 32 (≈ 59.9 µM) | 32 (≈ 59.9 µM) | 32 (≈ 59.9 µM) | > 32 | 32 (≈ 59.9 µM) | 32 (≈ 59.9 µM) | 32 (≈ 59.9 µM) | MIC [13]: 128 µg/mL (≈ 240 µM); MIC [14]: 64 µg/mL (≈ 120 µM); MIC [15]: 64 µg/mL (≈ 120 µM); MIC [16]: > 128 µg/mL; MIC [17]: > 128 µg/mL; MIC [18]: > 128 µg/mL; MIC [19]: > 32 µg/mL; MIC [20]: > 128 µg/mL; MIC [21]: > 32 µg/mL; MIC [22]: > 32 µg/mL; MIC [23]: > 128 µg/mL; MIC [24]: > 32 µg/mL; MIC [25]: > 128 µg/mL; MIC [26]: > 32 µg/mL; MIC [27]: 64 µg/mL (≈ 120 µM); MIC [28]: > 32 µg/mL
CC(NC(=O)c1c[nH]c2ccc(F)cc12)c1c[nH]c2ccc(Br)cc12 (stereo not shown) [Compound 5, N-(1-(5-bromo-1H-indol-3-yl)ethyl)-5-fluoro-1H-indole-3-carboxamide] | 16 (≈ 40 µM) | 16 (≈ 40 µM) | 16 (≈ 40 µM) | 16 (≈ 40 µM) | 16 (≈ 40 µM) | 16 (≈ 40 µM) | 16 (≈ 40 µM) | 16 (≈ 40 µM) | > 32 | 16 (≈ 40 µM) | 16 (≈ 40 µM) | 16 (≈ 40 µM) | 
CC(C)(C)OC(=O)NCC(NC(=O)c1c[nH]c2ccccc12)c1c[nH]c2ccc(Br)cc12 (stereo not shown) [Compound 3b, tert-Butyl (2-(5-bromo-1H-indol-3-yl)-2-(1H-indole-3-carboxamido)ethyl)carbamate] | 8 (≈ 16.1 µM) | 8 (≈ 16.1 µM) | 8 (≈ 16.1 µM) | 8 (≈ 16.1 µM) | 8 (≈ 16.1 µM) | 8 (≈ 16.1 µM) | 8 (≈ 16.1 µM) | 8 (≈ 16.1 µM) | 8 (≈ 16.1 µM) | 8 (≈ 16.1 µM) | 8 (≈ 16.1 µM) | 8 (≈ 16.1 µM) | MIC [29]: 8 µg/mL (≈ 16.1 µM); inhibition at 10 µM ([30]; HCT-116, 10^−5 M): 30 ± 2%; inhibition at 1 µM ([30]; HCT-116, 10^−6 M): 0%; inhibition at 10 µM ([31]; 10^−5 M): 41 ± 6%; inhibition at 1 µM ([31]; 10^−6 M): 0%; inhibition at 10 µM ([32]; 10^−5 M): 8 ± 5%; inhibition at 1 µM ([32]; 10^−6 M): 7%; IC50 ([33]; first value): 15 µM; IC50 ([33]; second value): 11.2 µM
